Reference: ChEMBL document CHEMBL1134501, “Structure-activity studies for a novel series of bicyclic substituted hexahydrobenz[e]isoindole alpha1A adrenoceptor antagonists as potential agents for the symptomatic treatment of benign prostatic hyperplasia” (J Med Chem, 2001)
Blank lines part the entries; values can stand above or below the compound they belong to.

Key:
[1] = biological target: T1, Alpha-1D adrenergic receptor (Rattus norvegicus, UniProt P23944); test: Binding affinity to rat alpha-1D adrenergic receptor expressed in LTK cells; format: cell-based
T1 sequence (P23944 whole entry): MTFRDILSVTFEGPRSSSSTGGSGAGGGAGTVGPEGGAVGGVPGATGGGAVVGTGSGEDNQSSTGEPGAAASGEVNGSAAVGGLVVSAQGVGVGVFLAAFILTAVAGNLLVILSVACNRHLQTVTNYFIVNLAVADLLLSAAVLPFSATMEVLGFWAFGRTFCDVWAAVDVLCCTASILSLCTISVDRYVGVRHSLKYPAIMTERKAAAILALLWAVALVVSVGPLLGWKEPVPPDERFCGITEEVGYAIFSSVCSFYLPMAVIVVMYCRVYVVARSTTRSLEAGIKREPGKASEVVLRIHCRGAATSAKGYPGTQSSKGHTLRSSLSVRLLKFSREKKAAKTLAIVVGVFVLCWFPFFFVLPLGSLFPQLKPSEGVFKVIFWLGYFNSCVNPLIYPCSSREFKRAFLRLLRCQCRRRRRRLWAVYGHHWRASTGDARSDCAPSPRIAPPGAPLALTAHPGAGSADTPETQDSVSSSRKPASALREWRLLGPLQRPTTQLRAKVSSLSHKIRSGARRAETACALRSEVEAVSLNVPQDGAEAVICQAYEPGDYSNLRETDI

[2] = biological target: T2, Alpha-1A adrenergic receptor (Rattus norvegicus, UniProt P43140); test: Binding affinity to alpha-1A adrenergic receptor in rat submaxillary gland; format: tissue-based
T2 sequence (P43140 whole entry): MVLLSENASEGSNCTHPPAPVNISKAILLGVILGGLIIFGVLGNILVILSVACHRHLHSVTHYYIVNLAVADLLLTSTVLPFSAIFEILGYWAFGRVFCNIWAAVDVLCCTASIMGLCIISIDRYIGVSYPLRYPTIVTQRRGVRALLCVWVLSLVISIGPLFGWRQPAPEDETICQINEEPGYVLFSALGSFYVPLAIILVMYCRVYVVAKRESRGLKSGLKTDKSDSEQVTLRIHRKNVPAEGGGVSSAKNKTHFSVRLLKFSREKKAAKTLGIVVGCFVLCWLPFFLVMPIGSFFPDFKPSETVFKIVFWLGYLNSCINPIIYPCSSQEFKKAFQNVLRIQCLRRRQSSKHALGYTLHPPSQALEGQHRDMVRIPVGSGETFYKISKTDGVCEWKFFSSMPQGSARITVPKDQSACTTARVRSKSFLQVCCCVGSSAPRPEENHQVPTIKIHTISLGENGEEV

[3] = organism: Cricetulus griseus; test: Selectivity ratio (alpha-1B/alpha-1A) of the compound
[4] = biological target: T3, Alpha-1B adrenergic receptor (Rattus norvegicus, UniProt P15823); test: In vitro antagonistic activity against alpha-1B receptor in rat spleen.; format: functional, tissue-based; settings: read-out: pA2 (converted)
T3 sequence (P15823 whole entry): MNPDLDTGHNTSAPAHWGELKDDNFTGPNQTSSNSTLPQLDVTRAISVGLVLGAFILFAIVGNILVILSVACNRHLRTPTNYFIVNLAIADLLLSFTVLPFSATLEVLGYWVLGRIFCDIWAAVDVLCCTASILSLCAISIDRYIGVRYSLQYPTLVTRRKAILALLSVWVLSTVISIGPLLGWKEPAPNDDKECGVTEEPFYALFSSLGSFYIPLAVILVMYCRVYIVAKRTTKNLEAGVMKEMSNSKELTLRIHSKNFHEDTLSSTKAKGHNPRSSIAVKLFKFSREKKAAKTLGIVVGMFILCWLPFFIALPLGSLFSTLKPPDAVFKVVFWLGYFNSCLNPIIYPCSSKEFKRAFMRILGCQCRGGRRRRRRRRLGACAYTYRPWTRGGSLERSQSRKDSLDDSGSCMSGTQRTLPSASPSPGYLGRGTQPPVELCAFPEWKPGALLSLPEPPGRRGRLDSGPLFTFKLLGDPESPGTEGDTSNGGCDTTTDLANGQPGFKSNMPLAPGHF

[5] = system: Canis familiaris; test: In vivo antagonist dissociation constant in intaraurethral pressure model in dogs.; settings: Canis lupus familiaris, read-out: pA2 (converted)
[6] = organism: Rattus norvegicus; test: Antagonistic activity in spontaneously hypertensive rat model.; format: functional
[7] = biological target: T2, Alpha-1A adrenergic receptor; test: In vitro antagonistic activity towards alpha-1A adrenergic receptor in rat vas deferens; format: functional, tissue-based; settings: read-out: pA2 (converted)
[8] = Selectivity ratio (antolog[pA2rat vas deferens/pA2 rat spleen]) of the compound; format: functional
[9] = biological target: Alpha-1A adrenergic receptor (Canis familiaris); test: In vitro antagonistic activity against alpha-1A receptor in dog prostate.; settings: read-out: pA2 (converted)

Compound: COc1ccc2[nH]c(=O)n(CCN3C[C@@H]4CCc5c(OC)cccc5[C@@H]4C3)c(=O)c2c1
Ki [1]: 1.13 nM
Ki [2]: 1.02 nM
Ratio [3]: 3.68

Compound: COc1cc2ncn(CCN3C[C@@H]4CCc5c(OC)cccc5[C@@H]4C3)c(=O)c2cc1OC
Ki [1]: 7.79 nM
Kb [4]: 85.1 nM
Kb [5]: 5.01 nM
pED50 [6]: 5.32

Compound: COc1cc2c(cc1OC)C(=O)N(CCN1C[C@@H]3CCc4c(OC)cccc4[C@@H]3C1)CC2
Ki [1]: 58.4 nM
Ki [2]: 7.82 nM
Ratio [3]: 7.83

Compound: COc1cccc2c1CC[C@H]1CN(CCn3c(=O)[nH]c4c(OC)cccc4c3=O)C[C@@H]21
Ki [1]: 1.15 nM
Ki [2]: 0.85 nM
Ratio [3]: 2.67

Compound: COc1cccc2c1CC[C@H]1CN(CCn3c(=O)[nH]c4ccncc4c3=O)C[C@@H]21
Ki [1]: 2.87 nM
Ki [2]: 6.8 nM
Ratio [3]: 1.55

Compound: COc1cccc2c1CC[C@H]1CN(CCn3c(=O)[nH]c4cc([N+](=O)[O-])ccc4c3=O)C[C@@H]21
Ki [1]: 1.2 nM
Ki [2]: 0.91 nM
Ratio [3]: 3.65

Compound: COc1cc2c(cc1OC)CN(CCN1C[C@@H]3CCc4c(OC)cccc4[C@@H]3C1)CC2
Ki [1]: 83.4 nM
Ki [2]: 80.7 nM
Ratio [3]: 1.43

Compound: COc1cccc2c1CC[C@H]1CN(CCn3c(=O)[nH]c4ncccc4c3=O)C[C@@H]21
Ki [1]: 1.99 nM

Compound: COc1cc2[nH]c(=O)n(CCN3C[C@@H]4CCc5c(OC)cccc5[C@@H]4C3)c(=O)c2cc1Cl
Ki [1]: 2.71 nM
Ki [2]: 1.89 nM
Ratio [3]: 4.9

Compound: COc1cccc2c1CC[C@H]1CN(CCn3c(=O)[nH]c4cccc(C)c4c3=O)C[C@@H]21
Ki [1]: 1.13 nM
Ki [2]: 1.15 nM
Ratio [3]: 0.9

Compound: COc1cc2nc(N3CCN(C(=O)C4CCCO4)CC3)nc(N)c2cc1OC (configuration not stated) [TERAZOSIN]
Kb [5]: 95.5 nM

Compound: COc1cccc2c1CC[C@H]1CN(CCn3c(=O)[nH]c4c(C(C)C)c(OC)sc4c3=O)C[C@@H]21
Ki [1]: 1.5 nM
Ki [2]: 0.41 nM
Ratio [3]: 5.6

Compound: COc1cc2c(cc1OC)NCN(CCN1C[C@@H]3CCc4c(OC)cccc4[C@@H]3C1)C2
Ki [1]: 189 nM
Ki [2]: 62.2 nM
Ratio [3]: 1.01

Compound: COc1cc2c(=O)n(CCN3C[C@@H]4CCc5c(OC)cccc5[C@@H]4C3)c(=O)n(C)c2cc1OC
Ki [1]: 3.71 nM
Ki [2]: 0.25 nM
Ratio [3]: 13.2

Compound: COc1cccc2c1CC[C@H]1CN(CCn3c(=O)[nH]c4cc(-c5ccccc5)sc4c3=O)C[C@@H]21
Ki [1]: 4.4 nM
Ki [2]: 7.73 nM
Ratio [3]: 1.5

Compound: COc1cccc2c1CC[C@H]1CN(CCn3c(=O)[nH]c4cnccc4c3=O)C[C@@H]21
Ki [1]: 1.78 nM
Ki [2]: 1.41 nM
Ratio [3]: 2.19

Compound: COc1cc2nc(N(C)CCCNC(=O)C3CCCO3)nc(N)c2cc1OC (configuration not stated) [ALFUZOSIN]
Kb [4]: 4.9 nM
Kb [5]: 135 nM

Compound: COc1cccc2c1CC[C@H]1CN(CCn3c(=O)[nH]c4cccnc4c3=O)C[C@@H]21
Ki [1]: 2.5 nM
Ki [2]: 3.58 nM
Ratio [3]: 2.29

Compound: COc1cc2[nH]c(=O)n(CCN3C[C@@H]4CCc5c(OC)cccc5[C@@H]4C3)c(=O)c2cc1OC
Ki [1]: 1.4 nM

Compound: COc1cccc2c1CC[C@H]1CN(CCn3c(=O)[nH]c4[nH]ccc4c3=O)C[C@@H]21
Ki [1]: 1.67 nM
Ki [2]: 1.2 nM
Ratio [3]: 2.15

Compound: CCOc1ccccc1OCCN[C@H](C)Cc1ccc(OC)c(S(N)(=O)=O)c1 [TAMSULOSIN]
Kb [5]: 1.35 nM

Compound: COC(=O)c1cc2[nH]c(=O)n(CCN3C[C@@H]4CCc5c(OC)cccc5[C@@H]4C3)c(=O)c2s1
Ki [1]: 1.38 nM
Ki [2]: 1.48 nM
Ratio [3]: 2.3

Compound: COc1cccc2c1CC[C@H]1CN(CCn3c(=O)[nH]c4nccnc4c3=O)C[C@@H]21
Ki [1]: 5.49 nM
Ki [2]: 9.22 nM
Ratio [3]: 1.36

Compound: COc1cc(N)c(C(=O)NCCN2C[C@@H]3CCc4c(OC)cccc4[C@@H]3C2)cc1OC
Ki [1]: 32.7 nM
Ki [2]: 3.75 nM
Ratio [3]: 7.8

Compound: COc1cccc2c1CC[C@H]1CN(CCn3c(=O)[nH]c4c(C)c(OC)sc4c3=O)C[C@@H]21
Ki [1]: 1.45 nM
Ki [2]: 1.09 nM
Ratio [3]: 6.5

Compound: COc1cc2c(cc1OC)C(=O)N(CCN1C[C@@H]3CCc4c(OC)cccc4[C@@H]3C1)CN2
Ki [1]: 72 nM
Ki [2]: 12.9 nM
Ratio [3]: 7.4

Compound: COc1cc2c(cc1OC)NC(=O)N(CCN1C[C@@H]3CCc4c(OC)cccc4[C@@H]3C1)C2
Ki [1]: 168 nM
Ki [2]: 123 nM
Ratio [3]: 1.5

Compound: COc1cccc2c1CC[C@H]1CN(CCn3c(=O)[nH]c4c(C)cc(C)cc4c3=O)C[C@@H]21
Ki [1]: 2.86 nM
Ki [2]: 2.73 nM
Ratio [3]: 5.96

Second part, led by results:

Ki [1]: 0.92 nM
Ki [2]: 1.39 nM
Ratio [3]: 1.17
Compound: COc1cccc2c1CCC1CN(CCn3c(=O)[nH]c4ccsc4c3=O)CC21 (configuration not stated)

Ki [1]: 0.62 nM
Ki [2]: 0.67 nM
Ratio [3]: 1.73
Compound: COc1cccc2c1CC[C@H]1CN(CCn3c(=O)[nH]c4ccccc4c3=O)C[C@@H]21

Ki [1]: 0.92 nM
Ki [2]: 1.39 nM
Compound: COc1cccc2c1CC[C@H]1CN(CCn3c(=O)[nH]c4ccsc4c3=O)C[C@@H]21

Ki [1]: 0.21 nM
Ki [2]: 0.09 nM
Ratio [3]: 7.3
Compound: COc1ccc2c(=O)n(CCN3C[C@@H]4CCc5c(OC)cccc5[C@@H]4C3)c(=O)[nH]c2c1

Ki [1]: 0.73 nM
Ki [2]: 1.38 nM
Ratio [3]: 2.94
Compound: COc1cccc2c1CC[C@H]1CN(CCn3c(=O)[nH]c4cc(C)c(C)cc4c3=O)C[C@@H]21

Ki [1]: 0.69 nM
Ki [2]: 0.71 nM
Ratio [3]: 1.31
Compound: COc1cccc2c1CC[C@H]1CN(CCn3c(=O)[nH]c4cccc(Cl)c4c3=O)C[C@@H]21

Ki [1]: 0.89 nM
Ki [2]: 0.09 nM
Ratio [3]: 14.6
Compound: COc1cccc2c1CC[C@H]1CN(CCn3c(=O)[nH]c4c(C)c(C)ccc4c3=O)C[C@@H]21

Ki [1]: 0.71 nM
Ki [2]: 0.85 nM
Compound: COc1cccc2c1CC[C@H]1CN(CCn3c(=O)[nH]c4c(C)csc4c3=O)C[C@@H]21

Ki [1]: 0.66 nM
Ki [2]: 0.33 nM
Ratio [3]: 1
Compound: COc1cccc2c1CC[C@H]1CN(CCn3c(=O)[nH]c4c(-c5ccccc5)csc4c3=O)C[C@@H]21

Ki [1]: 0.77 nM
Ki [2]: 0.27 nM
Ratio [3]: 6.07
Compound: COC(=O)c1ccc2c(=O)n(CCN3C[C@@H]4CCc5c(OC)cccc5[C@@H]4C3)c(=O)[nH]c2c1

Ki [1]: 0.24 nM
Ki [2]: 0.04 nM
Ratio [3]: 18
Compound: COc1cc2[nH]c(=O)n(CCN3C[C@@H]4CCc5c(OC)cccc5[C@@H]4C3)c(=O)c2s1

Ki [1]: 0.77 nM
Ki [2]: 0.09 nM
Kb [4]: 18.6 nM
Kb [7]: 1.48 nM
Ratio [3]: 17.3
Kb [9]: 0.148 nM
Compound: COc1cccc2c1CC[C@H]1CN(CCn3c(=O)[nH]c4cc(C#N)ccc4c3=O)C[C@@H]21
Ratio [8]: 12.59

Ki [1]: 0.68 nM
Ki [2]: 0.04 nM
Ratio [3]: 16.5
Compound: COc1cccc2c1CC[C@H]1CN(CCn3c(=O)[nH]c4c(OC)c(OC)ccc4c3=O)C[C@@H]21
Ratio [8]: 5.62

Ki [1]: 1.01 nM
Ki [2]: 1.03 nM
Ratio [3]: 2.04
Compound: COc1cccc2c1CC[C@H]1CN(CCn3c(=O)[nH]c4sccc4c3=O)C[C@@H]21

Ki [1]: 0.52 nM
Ki [2]: 0.48 nM
Ratio [3]: 2.1
Compound: COc1cccc2c1CC[C@H]1CN(CCn3c(=O)[nH]c4cscc4c3=O)C[C@@H]21

Ki [1]: 0.41 nM
Ki [2]: 0.43 nM
Ratio [3]: 1.95
Compound: COc1cccc2c1CC[C@H]1CN(CCn3c(=O)[nH]c4cc(NC(C)=O)ccc4c3=O)C[C@@H]21
